Reference: US9657006B2, “Macrocyclic factor VIIa inhibitors” (BRISTOL-MYERS SQUIBB COMPANY, priority 2013, dated 2017)
Structures can show the parent of a compound that is named as a salt.

Biological target: T1, FVIIa (Homo sapiens, UniProt P08709)
T1 construct: with about 1% of the total amount in the proteolytically active form factor VIIa
Assay: FVIIa Ki (25° C.): FVIIa peptide substrate assay
Assay type: biochemical
Details: S2288 peptide substrate, full-length human TF
Protocol: The effectiveness of compounds of the present invention as inhibitors of the coagulation Factors, VIIa, IXa, Xa, XIa, XIIa, plasma kallikrein or thrombin, tissue kallikrein and activated protein C, can be determined using a relevant purified serine protease, respectively, and an appropriate synthetic substrate. The rate of hydrolysis of the chromogenic or fluorogenic substrate by the relevant serine protease was measured both in the absence and presence of compounds of the present invention. […] A decrease in the rate of absorbance or fluorescence change in the presence of inhibitor is indicative of enzyme inhibition. Such methods are known to one skilled in the art. The results of this assay are expressed as the inhibitory constant, Ki.
a. FVIIa Ki (25° C.): FVIIa Peptide Substrate Assay
S2288 (range of concentrations) and FVIIa inhibitor were incubated for 15 minutes (min) at 25° C. Reactions were initiated by addition of a solution of full-length human TF (6 nM), FVIIa (0.75 nM), and PCPS (25 μM). FVIIa hydrolyses S2288, which was monitored for up to 60 min at 405 nm. Steady-state reaction velocity data (vs) was globally fit to Equation 1 for competitive inhibition. vs=Vmax[S]/([S]+Km(1+[I]/Ki)) (Eq. 1) where Vmax is maximum velocity, [S] is substrate concentration, Km is the Michaelis-Menten constant, [I] is the inhibitor concentration, and Ki is the inhibitor dissociation constant (GraFit, version 5, Erithacus Software Ltd, West Sussex, UK).

T1 sequence (P08709 213-466 limits assumed): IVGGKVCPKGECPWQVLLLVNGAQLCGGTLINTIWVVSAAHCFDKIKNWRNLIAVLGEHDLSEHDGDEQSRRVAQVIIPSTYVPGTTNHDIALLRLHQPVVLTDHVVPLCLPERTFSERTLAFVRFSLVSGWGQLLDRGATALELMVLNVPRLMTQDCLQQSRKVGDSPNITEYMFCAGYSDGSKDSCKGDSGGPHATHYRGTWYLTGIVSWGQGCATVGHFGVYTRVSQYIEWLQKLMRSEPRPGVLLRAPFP
T1 sequence (P08709 61-212 limits assumed): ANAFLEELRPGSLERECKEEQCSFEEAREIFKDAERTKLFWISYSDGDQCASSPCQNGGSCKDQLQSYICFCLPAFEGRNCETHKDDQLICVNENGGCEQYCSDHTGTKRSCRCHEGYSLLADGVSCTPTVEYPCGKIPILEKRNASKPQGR
T1 sequence (P13726 33-295 partner): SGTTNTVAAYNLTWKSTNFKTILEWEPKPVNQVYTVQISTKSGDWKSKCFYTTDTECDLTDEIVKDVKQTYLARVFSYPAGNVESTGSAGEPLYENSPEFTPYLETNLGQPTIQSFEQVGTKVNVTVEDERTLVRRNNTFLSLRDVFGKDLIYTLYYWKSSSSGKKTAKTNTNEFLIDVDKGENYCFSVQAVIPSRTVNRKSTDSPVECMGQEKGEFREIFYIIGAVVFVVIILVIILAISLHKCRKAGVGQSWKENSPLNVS

Row | Compound | Ki
1 | 4-((R)-16-Difluoromethoxy-17-fluoro-3,12-dioxo-2,13-diaza-tricyclo[13.3.1.1^6,10]icosa-1(19),6,8,10(20),15,17-hexaen-11-ylamino)-benzamidine trifluoroacetic acid salt [Example 37] | 11 nM
2 | COc1ccc2cc1[C@H](C)CN(C)C(=O)Nc1ccc(S(=O)(=O)C3CC3)c(c1)CN(C)C(=O)C2Nc1ccc2c(N)nccc2c1 (mixture of isomers) [Example 12, (S)-5-(1-Amino-isoquinolin-6-ylamino)-19-cyclopropanesulfonyl-9-methoxy-3,11,13-trimethyl-3,13,15-triaza-tricyclo[14.3.1.1^6,10]henicosa-1(20),6(21),7,9,16,18-hexaene-4,14-dione trifluoroacetic acid salt] | 47 nM
3 | CN1Cc2cc(ccc2S(=O)(=O)C2CC2)NC(=O)OCc2cccc(c2)[C@@H](Nc2ccc3c(N)nccc3c2)C1=O (single isomer, unassigned) [Example 3] | 560 nM
4 | CN1Cc2cc(ccc2S(=O)(=O)C2CC2)NC(=O)OCC(C)(C)c2cccc(c2)[C@@H](Nc2ccc3c(N)nccc3c2)C1=O (single isomer, unassigned) [Example 4] | 1480 nM
5 | COc1ccc2cc1CCOC(=O)Nc1ccc(S(=O)(=O)C3CC3)c(c1)CN(C)C(=O)[C@@H]2Nc1ccc2c(N)nccc2c1 (single isomer, unassigned) [Example 6] | 44 nM
6 | C[C@@H]1COC(=O)Nc2ccc(S(=O)(=O)C3CC3)c(c2)CN(C)C(=O)[C@H](Nc2ccc3c(N)nccc3c2)c2cccc1c2 (single isomer, unassigned) [Example 7] | 115 nM
7 | CN1Cc2cc(ccc2S(=O)(=O)C2CC2)NC(=O)CCc2cccc(c2)[C@@H](Nc2ccc3c(N)nccc3c2)C1=O (single isomer, unassigned) [Example 8] | 5 nM
8 | COc1ccc2cc1CCC(=O)Nc1ccc(S(=O)(=O)C3CC3)c(c1)CN(C)C(=O)[C@@H]2Nc1ccc2c(N)ncc(F)c2c1 (single isomer, unassigned) [Example 11] | 5 nM
9 | CN1Cc2cc(ccc2S(=O)(=O)C2CC2)NC(=O)CCc2cc(ccc2F)[C@@H](Nc2ccc3c(N)ncc(F)c3c2)C1=O (single isomer, unassigned) [Example 14] | 5 nM
10 | COc1cc2cc(c1)[C@@H](Nc1ccc3c(N)ncc(F)c3c1)C(=O)N(C)Cc1cc(ccc1S(=O)(=O)C1CC1)NC(=O)CC2 (single isomer, unassigned) [Example 15] | 6 nM
11 | CN1Cc2cc(ccc2S(=O)(=O)C2CC2)NC(=O)CCc2cccc(c2)[C@@H](Nc2ccc3c(N)ncc(F)c3c2)C1=O (single isomer, unassigned) [Example 17] | 7 nM
12 | CN1Cc2cc(ccc2S(=O)(=O)C2CC2)NC(=O)CCc2cc(ccc2OCc2ccccc2)[C@@H](Nc2ccc3c(N)ncc(F)c3c2)C1=O (single isomer, unassigned) [Example 18] | 6 nM
13 | CN1CCc2cccc(c2)[C@@H](Nc2ccc3c(N)ncc(F)c3c2)C(=O)N(C)Cc2cc(ccc2S(=O)(=O)C2CC2)NC1=O (single isomer, unassigned) [Example 28] | 14 nM
14 | CN1Cc2cc(ccc2S(=O)(=O)C2CC2)NC(=O)N(Cc2ccccc2)CCc2cccc(c2)[C@@H](Nc2ccc3c(N)ncc(F)c3c2)C1=O (single isomer, unassigned) [Example 29] | 80 nM
15 | COc1c(F)cc2cc1CCC(=O)Nc1ccc(S(=O)(=O)C3CC3)c(c1)CN(C)C(=O)[C@@H]2Nc1ccc2c(N)ncc(F)c2c1 (single isomer, unassigned) [Example 30] | 10 nM
16 | COc1ccc2cc1[C@@H](C)CN(C)C(=O)Nc1ccc(S(=O)(=O)C3CC3)c(c1)CN(C)C(=O)[C@@H]2Nc1ccc2c(N)ncc(F)c2c1 (single isomer, unassigned) [Example 31] | 5 nM

Row | Compound | Ki
17 | C[C@H]1CC(=O)Nc2ccc(S(=O)(=O)C3CC3)c(c2)CN(C)C(=O)[C@H](Nc2ccc3c(N)ncc(F)c3c2)c2ccc(OCC(F)F)c1c2 (single isomer, unassigned) [Example 32, trifluoroacetic acid salt] | 31 nM
18 | COc1ccc2cc1CCC(=O)Nc1ccc(S(=O)(=O)C(F)(F)F)c(c1)CN(C)C(=O)[C@@H]2Nc1ccc2c(N)nccc2c1 (single isomer, unassigned) [Example 34, trifluoroacetic acid salt] | 5 nM
19 | CN1CCc2cccc(c2)[C@@H](Nc2ccc(C(=N)N)cc2)C(=O)N(C)Cc2cc(cc(F)c2OC(F)F)NC1=O (single isomer, unassigned) [Example 35, trifluoroacetic acid salt] | 6 nM
20 | C[C@@H]1CC(=O)Nc2ccc(S(=O)(=O)C3CC3)c(c2)CN(C)C(=O)[C@H](Nc2ccc3c(N)ncc(F)c3c2)c2ccc(OCC(F)F)c1c2 (single isomer, unassigned) [Example 38, trifluoroacetic acid salt] | 5 nM
21 | CN1CCc2cc(ccc2OCC(F)F)[C@@H](Nc2ccc3c(N)ncc(F)c3c2)C(=O)N(C)Cc2cc(ccc2S(=O)(=O)C(F)F)NC1=O (single isomer, unassigned) [Example 39, trifluoroacetic acid salt] | 120 nM
22 | CN1Cc2cc(cc(F)c2OCC(F)F)NC(=O)CCc2cc(ccc2OCC(F)F)[C@@H](Nc2ccc(C(=N)N)cc2)C1=O (single isomer, unassigned) [Example 40, trifluoroacetic acid salt] | 5 nM
23 | CN1Cc2cc(ccc2S(=O)(=O)C2CC2)NC(=O)NCCc2cccc(c2)[C@@H](Nc2ccc3c(N)ncc(F)c3c2)C1=O (single isomer, unassigned) [Example 41, trifluoroacetic acid salt] | 17 nM
24 | CN1Cc2cc(cc(F)c2OC(CF)CF)NC(=O)CCc2cc(ccc2OCC(F)F)[C@@H](Nc2ccc(C(=N)N)cc2)C1=O (single isomer, unassigned) [Example 42, trifluoroacetic acid salt] | 5 nM
25 | C[C@@H]1CC(=O)Nc2ccc(OC(F)F)c(c2)CN(C)C(=O)[C@H](Nc2ccc(C(=N)N)cc2)c2ccc(OCC(F)F)c1c2 (single isomer, unassigned) [Example 43, trifluoroacetic acid salt] | 5 nM
26 | CN1Cc2cc(ccc2S(=O)(=O)C2CC2)NC(=O)OCCc2cccc(c2)[C@@H](Nc2ccc3c(N)nccc3c2)C1=O [Example 1, (R)-5-(1-Amino-isoquinolin-6-ylamino)-19-cyclopropanesulfonyl-3-methyl-13-oxa-3,15-diaza-tricyclo[14.3.1.1^6,10]henicosa-1(19),6(21),7,9,16(20),17-hexaene-4,14-dione trifluoroacetic acid salt+Enantiomer] | 188 nM
27 | CN1Cc2cc(ccc2S(=O)(=O)C2CC2)NC(=O)OCC2(CC2)c2cccc(c2)C(Nc2ccc3c(N)nccc3c2)C1=O (centres unmarked) [Example 5, trifluoroacetic acid salt] | 950 nM
28 | COc1ccc2cc1COCC(=O)Nc1ccc(S(=O)(=O)C3CC3)c(c1)CN(C)C(=O)[C@@H]2Nc1ccc2c(N)nccc2c1 [Example 9, (R)-5-(1-Amino-isoquinolin-6-ylamino)-19-cyclopropanesulfonyl-9-methoxy-3-methyl-12-oxa-3,15-diaza-tricyclo[14.3.1.1^6,10]henicosa-1(19),6(21),7,9,16(20),17-hexaene-4,14-dione trifluoroacetic acid salt+Enantiomer] | 23 nM
29 | CN1Cc2cc(ccc2S(=O)(=O)C2CC2)NC(=O)COc2cccc(c2)[C@@H](Nc2ccc3c(N)nccc3c2)C1=O [Example 10, (R)-14-(1-Amino-isoquinolin-6-ylamino)-9-cyclopropanesulfonyl-12-methyl-2-oxa-5,12-diaza-tricyclo[13.3.1.1^6,10]icosa-1(18),6(20),7,9,15 (19),16-hexaene-4,13-dione trifluoroacetic acid salt+Enantiomer] | 714 nM
30 | CN1CCc2cc(ccc2OCc2ccccc2)C(Nc2ccc3c(N)ncc(F)c3c2)C(=O)N(C)Cc2cc(ccc2S(=O)(=O)C2CC2)NC1=O (centres unmarked) [Example 19, 5-(1-Amino-4-fluoro-isoquinolin-6-ylamino)-9-benzyloxy-19-cyclopropanesulfonyl-3,13-dimethyl-3,13,15-triaza-tricyclo[14.3.1.1^6,10]henicosa-1(19),6(21),7,9,16(20),17-hexaene-4,14-dione, trifluoroacetic acid salt] | 115 nM
31 | CN1Cc2cc(ccc2S(=O)(=O)C2CC2)NC(=O)CCc2cc(ccc2OCC(F)F)[C@@H](Nc2ccc3c(N)ncc(F)c3c2)C1=O [Example 21, (R)-11-(1-Amino-4-fluoro-isoquinolin-6-ylamino)-16-cyclopropane sulfonyl-7-(2,2-difluoro-ethoxy)-13-methyl-2,13-diaza-tricyclo[13.3.1.1^6,10]icosa-1(19),6,8,10(20),15,17-hexaene-3,12-dione trifluroracetic acid salt] | 5 nM
32 | CN1Cc2cc(ccc2S(=O)(=O)C2CC2)NC(=O)CCc2cc(ccc2OCC2CC2)[C@@H](Nc2ccc3c(N)ncc(F)c3c2)C1=O [Example 22, (R)-11-(1-Amino-4-fluoro-isoquinolin-6-ylamino)-16-cyclopropane sulfonyl-7-cyclopropylmethoxy-13-methyl-2,13-diaza-tricyclo[13.3.1.1^6,10]icosa-1(19),6,8,10(20),15,17-hexaene-3,12-dione trifluroracetic acid salt] | 5 nM
